The text below walks through data of patent US10988524B2, “Modified relaxin B chain peptides and their therapeutic use” (priority 2018, dated 2021).

Molecules are shown by their SMILES. Non-standard residues stand in square brackets, D forms with d. Residues, ends and D or L forms follow the SMILES beside them. 1Nal = N[C@@H](Cc1cccc2ccccc12)C(=O)O; αMeS = C[C@](N)(CO)C(=O)O; Nle = CCCC[C@H](N)C(=O)O; Aib = CC(C)(N)C(=O)O Where only a bound is given, the exact number is not on record here.

What is called Emax is the size of the effect at its maximum, as opposed to the concentration needed. As usually defined, the EC50 is the concentration needed to bring the measured effect to its halfway point. Read a high EC50 as a need for much substance.

This assay addresses T1, RXFP1 (Homo sapiens, UniProt Q9HBX9).
T1 sequence (Q9HBX9 1-757): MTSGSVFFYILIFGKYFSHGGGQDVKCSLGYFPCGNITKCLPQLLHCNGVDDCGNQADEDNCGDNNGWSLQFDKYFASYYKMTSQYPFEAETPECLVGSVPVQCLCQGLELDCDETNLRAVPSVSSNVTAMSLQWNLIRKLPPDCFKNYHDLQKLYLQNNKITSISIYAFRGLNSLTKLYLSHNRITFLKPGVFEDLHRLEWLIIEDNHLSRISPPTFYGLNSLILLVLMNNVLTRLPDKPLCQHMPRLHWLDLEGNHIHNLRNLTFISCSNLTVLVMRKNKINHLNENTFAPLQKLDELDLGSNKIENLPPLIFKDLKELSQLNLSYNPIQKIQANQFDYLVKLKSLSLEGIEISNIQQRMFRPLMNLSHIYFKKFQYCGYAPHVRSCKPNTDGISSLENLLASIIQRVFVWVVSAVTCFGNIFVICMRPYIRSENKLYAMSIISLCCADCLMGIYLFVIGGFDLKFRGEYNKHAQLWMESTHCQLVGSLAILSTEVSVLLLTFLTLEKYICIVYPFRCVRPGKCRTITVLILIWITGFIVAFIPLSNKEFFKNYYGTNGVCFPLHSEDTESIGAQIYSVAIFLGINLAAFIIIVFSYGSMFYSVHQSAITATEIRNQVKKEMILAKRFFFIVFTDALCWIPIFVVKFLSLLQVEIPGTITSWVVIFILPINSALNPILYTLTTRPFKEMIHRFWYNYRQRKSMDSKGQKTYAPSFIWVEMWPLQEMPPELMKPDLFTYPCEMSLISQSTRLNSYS
The experiment in a line: OVCAR5 cAMP assay (RXFP1 agonist activity, HTRF). The conditions noted are these: for Emax: OVCAR-5, read-out: cAMP assay in OVCAR 5 cells Emax, maximal intracellular cAMP relative to H2-relaxin in the same test occasion; for EC50: cAMP assay in OVCAR 5 cells EC50 (nM), OVCAR5 cells expressing endogenous RXFP1, cAMP by HTRF, 30 min at 37° C., 1 mM IBMX.

As to `CC[C@H](C)[C@H](NC(=O)[C@H](CCC(N)=O)NC(=O)[C@H](C)NC(=O)[C@H](CCCNC(=N)N)NC(=O)[C@@H](NC(=O)[C@H](CCCCN)NC(=O)[C@H](CCC(=O)O)NC(=O)[C@H](CCCNC(=N)N)NC(=O)CNC(=O)[C@H](CCC(=O)O)NC(=O)[C@H](CC(C)C)NC(C)=O)C(C)C)C(=O)NC(C)(C)C(=O)NC(C)(C)C(=O)N[C@@H](CCC(=O)O)C(=O)NCC(=O)N[C@@H](CCSC)C(=O)N[C@@H](CO)C(=O)N[C@H](C(=O)N[C@@H](Cc1c[nH]c2ccccc12)C(=O)N[C@@H](CO)C(=O)NC(C)(C)C(=O)N[C@@H](CCCNC(=N)N)C(N)=O)[C@@H](C)O` [compound 41] (Ac-LEGREKVRAQI[Aib][Aib]EGMSTWS[Aib]R-NH2), the Emax turned out to be 106%.

For `CC[C@H](C)[C@H](NC(=O)[C@H](CCC(N)=O)NC(=O)[C@H](C)NC(=O)[C@H](CCCNC(=N)N)NC(=O)[C@@H](NC(=O)[C@H](CCCCN)NC(=O)[C@H](CCC(=O)O)NC(=O)[C@H](CCCNC(=N)N)NC(=O)CNC(=O)[C@H](CCC(=O)O)NC(=O)[C@H](CC(C)C)NC(C)=O)C(C)C)C(=O)NC(C)(C)C(=O)NC(C)(C)C(=O)N[C@@H](CCC(=O)O)C(=O)NCC(=O)N[C@@H](CCSC)C(=O)N[C@@H](CO)C(=O)N[C@H](C(=O)N[C@@H](Cc1c[nH]c2ccccc12)C(=O)N[C@@H](CO)C(=O)NC(C)(C)C(=O)N[C@@H](CCCNC(=N)N)C(=O)N[C@@H](CCCCN)C(N)=O)[C@@H](C)O` [compound 45] (Ac-LEGREKVRAQI[Aib][Aib]EGMSTWS[Aib]RK-NH2), the maximal response (Emax) was determined as 98%.

`CCCC[C@H](NC(=O)CNC(=O)[C@H](CCC(=O)O)NC(=O)C(C)(C)NC(=O)C(C)(C)NC(=O)[C@@H](NC(=O)C(C)(C)NC(=O)[C@H](C)NC(=O)[C@H](CCCNC(=N)N)NC(=O)[C@@H](NC(=O)[C@H](CCCCN)NC(=O)[C@H](CCC(=O)O)NC(=O)[C@H](CCCNC(=N)N)NC(=O)CNC(=O)[C@H](CCC(=O)O)NC(=O)[C@H](CC(C)C)NC(C)=O)C(C)C)[C@@H](C)CC)C(=O)N[C@@H](CO)C(=O)N[C@H](C(=O)N[C@@H](Cc1c[nH]c2ccccc12)C(=O)N[C@@H](CO)C(=O)N[C@@H](CCCCN)C(=O)N[C@@H](CCCNC(=N)N)C(=O)N[C@@H](CCCCN)C(=O)N[C@@H](CCCCN)C(N)=O)[C@@H](C)O` [compound 19] (Ac-LEGREKVRA[Aib]I[Aib][Aib]EG[Nle]STWSKRKK-NH2): the maximal effect (Emax) amounted to 97%. Regarding `CC[C@H](C)[C@H](NC(=O)[C@H](C)NC(=O)[C@H](C)NC(=O)[C@H](CCCNC(=N)N)NC(=O)[C@@H](NC(=O)[C@H](CCCCN)NC(=O)[C@H](CCC(=O)O)NC(=O)[C@H](CCCNC(=N)N)NC(=O)CNC(=O)[C@H](CCC(=O)O)NC(=O)[C@H](CC(C)C)NC(C)=O)C(C)C)C(=O)NC(C)(C)C(=O)NC(C)(C)C(=O)N[C@@H](CCC(=O)O)C(=O)NCC(=O)N[C@@H](CCSC)C(=O)N[C@@H](CO)C(=O)N[C@H](C(=O)N[C@@H](Cc1c[nH]c2ccccc12)C(=O)N[C@@H](CO)C(=O)N[C@@H](CCCCN)C(=O)N[C@@H](CCCNC(=N)N)C(=O)N[C@@H](CCCCN)C(=O)N[C@@H](CCCCN)C(N)=O)[C@@H](C)O` [compound 16] (Ac-LEGREKVRAAI[Aib][Aib]EGMSTWSKRKK-NH2), the Emax came out at 101% and the 50% effective concentration (EC50) is at most 5 nM.

Consider `CC[C@H](C)[C@H](NC(=O)[C@H](CCC(N)=O)NC(=O)[C@H](C)NC(=O)[C@H](CCCNC(=N)N)NC(=O)[C@@H](NC(=O)[C@H](CCCCN)NC(=O)[C@H](CCC(=O)O)NC(=O)[C@H](CCCNC(=N)N)NC(=O)CNC(=O)[C@H](CCC(=O)O)NC(=O)C(C)(C)N)C(C)C)C(=O)NC(C)(C)C(=O)NC(C)(C)C(=O)N[C@@H](CCC(=O)O)C(=O)NCC(=O)N[C@@H](CCSC)C(=O)N[C@@H](CO)C(=O)N[C@@H](CCCCN)C(=O)N[C@@H](Cc1c[nH]c2ccccc12)C(=O)N[C@@H](CO)C(=O)N[C@@H](CCCCN)C(=O)N[C@@H](CCCNC(=N)N)C(=O)N[C@@H](CCCCN)C(=O)N[C@@H](CCCCN)C(N)=O` [compound 12] (H-[Aib]EGREKVRAQI[Aib][Aib]EGMSKWSKRKK-NH2), for which the maximal response (Emax) came out at 99%.

In the case of `CCCC[C@H](NC(=O)CNC(=O)[C@H](CCC(=O)O)NC(=O)C(C)(C)NC(=O)C(C)(C)NC(=O)[C@@H](NC(=O)[C@H](CCCCNC(C)=O)NC(=O)[C@H](C)NC(=O)[C@H](CCCNC(=N)N)NC(=O)[C@@H](NC(=O)[C@H](CCCCN)NC(=O)[C@H](CCC(=O)O)NC(=O)[C@H](CCCNC(=N)N)NC(=O)CNC(=O)[C@H](CCC(=O)O)NC(=O)[C@H](CC(C)C)NC(C)=O)C(C)C)[C@@H](C)CC)C(=O)N[C@@H](CO)C(=O)N[C@H](C(=O)N[C@@H](Cc1c[nH]c2ccccc12)C(=O)N[C@@](C)(CO)C(=O)NC(C)(C)C(=O)N[C@@H](CCCNC(=N)N)C(=O)N[C@@H](CCCCN)C(=O)N[C@@H](CCCCNC(C)=O)C(N)=O)[C@@H](C)O` [compound 30] (Ac-LEGREKVRAK(Ac)I[Aib][Aib]EG[Nle]STW[αMeS][Aib]RKK(Ac)-NH2), the maximum response (Emax) was 93%. As to `CCCC[C@H](NC(=O)CNC(=O)[C@H](CCC(=O)O)NC(=O)C(C)(C)NC(=O)C(C)(C)NC(=O)[C@@H](NC(=O)[C@H](CCC(N)=O)NC(=O)[C@H](C)NC(=O)[C@H](CCCNC(=N)N)NC(=O)[C@@H](NC(=O)[C@H](CCCCN)NC(=O)[C@H](CCC(=O)O)NC(=O)[C@H](CCCNC(=N)N)NC(=O)CNC(=O)[C@H](CCC(=O)O)NC(=O)[C@H](CC(C)C)NC(C)=O)C(C)C)[C@@H](C)CC)C(=O)N[C@@H](CO)C(=O)N[C@H](C(=O)N[C@@H](Cc1c[nH]c2ccccc12)C(=O)N[C@@H](CO)C(=O)NC(C)(C)C(=O)N[C@@H](CCCNC(=N)N)C(=O)N[C@@H](CCCCN)C(=O)N[C@@H](CCCCNC(C)=O)C(N)=O)[C@@H](C)O` [compound 21] (Ac-LEGREKVRAQI[Aib][Aib]EG[Nle]STWS[Aib]RKK(Ac)-NH2), the maximal effect (Emax) is 96% and the midpoint of the response, the EC50, lay at 32.8 nM. Turning to `CCCC[C@H](NC(=O)CNC(=O)[C@H](CCC(=O)O)NC(=O)C(C)(C)NC(=O)C(C)(C)NC(=O)[C@@H](NC(=O)[C@H](CCC(N)=O)NC(=O)[C@H](C)NC(=O)[C@H](CCCNC(=N)N)NC(=O)[C@@H](NC(=O)[C@H](CCCCN)NC(=O)[C@H](CCC(=O)O)NC(=O)[C@H](CCCNC(=N)N)NC(=O)CNC(=O)[C@H](CCC(=O)O)NC(=O)[C@H](CC(C)C)NC(C)=O)C(C)C)[C@@H](C)CC)C(=O)N[C@@H](CO)C(=O)N[C@H](C(=O)N[C@@H](Cc1c[nH]c2ccccc12)C(=O)N[C@@H](CO)C(=O)NC(C)(C)C(=O)N[C@@H](CCCNC(=N)N)C(=O)N[C@@H](CCCCN)C(N)=O)[C@@H](C)O` [compound 44] (Ac-LEGREKVRAQI[Aib][Aib]EG[Nle]STWS[Aib]RK-NH2), the Emax is 101%. On to `CCCC[C@H](NC(=O)CNC(=O)[C@H](CCC(=O)O)NC(=O)C(C)(C)NC(=O)C(C)(C)NC(=O)[C@@H](NC(=O)[C@H](CCCCNC(C)=O)NC(=O)[C@H](C)NC(=O)[C@H](CCCNC(=N)N)NC(=O)[C@@H](NC(=O)[C@H](CCCCN)NC(=O)[C@H](CCC(=O)O)NC(=O)[C@H](CCCNC(=N)N)NC(=O)CNC(=O)[C@H](CCC(=O)O)NC(=O)[C@H](CC(C)C)NC(C)=O)C(C)C)[C@@H](C)CC)C(=O)N[C@@H](CO)C(=O)N[C@H](C(=O)N[C@@H](Cc1cccc2ccccc12)C(=O)N[C@@H](CO)C(=O)NC(C)(C)C(=O)N[C@@H](CCCNC(=N)N)C(=O)N[C@@H](CCCCN)C(=O)N[C@@H](CCCCNC(C)=O)C(N)=O)[C@@H](C)O` [compound 29] (Ac-LEGREKVRAK(Ac)I[Aib][Aib]EG[Nle]ST[1Nal]S[Aib]RKK(Ac)-NH2), for which the maximum response (Emax) was determined as 98%. The same measure, in the same setting: the same measure for `CCCC[C@H](NC(=O)CNC(=O)[C@H](CCC(=O)O)NC(=O)C(C)(C)NC(=O)C(C)(C)NC(=O)[C@@H](NC(=O)[C@H](CCC(N)=O)NC(=O)[C@H](C)NC(=O)[C@H](CCCNC(=N)N)NC(=O)[C@@H](NC(=O)[C@H](CCCCN)NC(=O)[C@H](CCC(=O)O)NC(=O)[C@H](CCCNC(=N)N)NC(=O)CNC(=O)[C@H](CCC(=O)O)NC(=O)[C@H](CC(C)C)NC(C)=O)C(C)C)[C@@H](C)CC)C(=O)N[C@@H](CO)C(=O)N[C@H](C(=O)N[C@@H](Cc1c[nH]c2ccccc12)C(=O)N[C@@H](CO)C(=O)N[C@@H](CCCCN)C(=O)N[C@@H](CCCNC(=N)N)C(=O)N[C@@H](CCCCN)C(=O)N[C@@H](CCCCN)C(N)=O)[C@@H](C)O` [compound 13] (Ac-LEGREKVRAQI[Aib][Aib]EG[Nle]STWSKRKK-NH2): 97%. Turning to `CC[C@H](C)[C@H](NC(=O)[C@H](CCC(N)=O)NC(=O)C(C)(C)NC(=O)[C@H](CCCNC(=N)N)NC(=O)[C@@H](NC(=O)[C@H](CCCCN)NC(=O)[C@H](CCC(=O)O)NC(=O)[C@H](CCCNC(=N)N)NC(=O)CNC(=O)[C@H](CCC(=O)O)NC(=O)[C@H](CC(C)C)NC(C)=O)C(C)C)C(=O)NC(C)(C)C(=O)NC(C)(C)C(=O)N[C@@H](CCC(=O)O)C(=O)NCC(=O)N[C@@H](CCSC)C(=O)N[C@@H](CO)C(=O)N[C@H](C(=O)N[C@@H](Cc1c[nH]c2ccccc12)C(=O)N[C@@H](CO)C(=O)NC(C)(C)C(=O)N[C@@H](CCCNC(=N)N)C(N)=O)[C@@H](C)O` [compound 42] (Ac-LEGREKVR[Aib]QI[Aib][Aib]EGMSTWS[Aib]R-NH2), the Emax worked out at 104% and the EC50 turned out to be 251 nM.
